Measurements published in patent publication US11591342B2, “Heterocyclic compound, application thereof and pharmaceutical composition comprising same” (SUZHOU SINOVENT PHARMACEUTICALS CO., LTD., priority 2018, dated 2023).

Assays:
Autotaxin (ATX) = Autotaxin (ATX) (Homo sapiens (Human), UniProt Q13822); assay: ATX bioactivity assay (Amplex Red / choline oxidase / HRP fluorescence, LPC 16:0 substrate); assay type: biochemical; conditions: 30 min room temperature
Description: Effect Example 1 Bioactivity Assay
Preparation and Treatment
Stock Solution Preparation
A 10 mM DMSO stock solution was formulated for each compound. A 30 mM DMSO stock solution was formulated for positive control HA130.
The DMSO stock solutions were stored at room temperature in a desiccator for a short period of time or at −20° C. for a long period of time.
All compounds were serially 3-fold diluted in DMSO from 10 μM to the 10th concentration.
A 1000× positive control (10 mM, HA130) and a 1000× negative control (100% DMSO) were prepared.
The plates were shaken for 5 min.
Preparation of 1× Reaction Buffer:
5× reaction buffer and cold water were mixed well in a volume ratio of 1:4.
Preparation of 20 U/mL Choline Oxidase Stock Solution:
1 tube of choline oxide in a kit was dissolved in 1× reaction buffer. The aliquots were frozen at −20° C.
Preparation of 200 U/mL Horseradish Peroxidase (HRP) Stock Solution:
1 tube of HRP in a kit was dissolved in 1 mL of 1× reaction buffer. The aliquots were frozen at −20° C.
Preparation of 20 mM Amplex® Red Reagent (for Detection) Stock Solution
Amplex Red reagent and DMSO were equilibrated at room temperature. 1 tube of Amplex Red reagent in a kit was dissolved in 200 μL of DMSO.
a) 2×ATX ([…]), 2×HRP ([…]), 2× choline oxidase (0.2 U/mL) were added to 1× reaction buffer.
b) 20 μL of the reaction mixture was added to the plate (PE, 6007270) (refer to step a).
c) 40 nL of diluent was added to the plate using Echo (refer to “Preparation”).
d) 2×LPC (16:0) (60 mM) and 2× Amplex® Red ([…]) were prepared using 1× reaction buffer.
e) 20 μL of the mixture was added to the plate (refer to step d).
f) The plate was shaken for 30 s and allowed to stand at room temperature for 30 min.
g) The plate was examined using Envision, and the procedure was as follows: Excitation at 530 nm; and Emission at 590 nm.
Formula for Calculating % Inhibition (Percent Inhibition Rate) as Follows:
FLU: Fluorescence (fluorescence reading)
FLUpositive: Average fluorescence value in positive control wells (10 μM HA130) in the plate.
FLUvehicle: Average fluorescence value in negative control wells (0.1% DMSO) in the plate.
Calculation of IC50 and Dose-Response Curve:
IC50 of the compounds was calculated via a non-linear regression line (dose-variable slope) fitted using % inhibition and log of compound concentration. The software used was Graphpad 5.0. Y=Bottom+(Top−Bottom)/(1+10^((Log IC50−X)×Hill Slope))
X: log of inhibitor concentration

LPA18:2 in mouse plasma = assay: Inhibition of LPA in mouse plasma (plasma LPA18:2 assay, LC-MS/MS); assay type: biochemical, CD1 mice; conditions: fresh CD1 mouse plasma, LPA18:2, 37° C. for 120 min
Description: Effect Example 2. Inhibition of LPA in Mouse Plasma by Compounds
20 mM stock solutions of the compounds were prepared with DMSO and then diluted to 1 mM, which was subjected to a serial 3-fold dilution to yield 10 working solutions.
Collection of Fresh Mouse Plasma:
CD1 mice were euthanized by CO2 inhalation. Approximately 1 mL of whole blood was taken by cardiac puncture, with EDTA-K2 for anticoagulation. The blood was centrifuged at 3220 g for 10 min at 4° C. for plasma collection.
Reactions were performed in a 96-well plate, and the samples were tested in duplicate. 1 μL of each working solution was added to 100 μL of plasma, with the final concentrations of […]. 1 μL of DMSO was added to plasma to serve as blank. The samples were incubated in a water bath at 37° C. for 120 min, and 600 μL of 10 μM tolbutamide in methanol was added to terminate the reaction. Tolbutamide also served as an internal standard. After 5 min of vortex mixing, the samples were centrifuged at 3220 g for 45 min at 4° C. to precipitate the protein. 100 μL of the supernatant was transferred to a new plate, diluted with water based on LC-MS response and peak shapes, mixed well and analyzed by LC-MS/MS.
LPA18:2 was quantified using peak area ratio (LPA18:2/internal standard), requiring no standard curve. For test compounds of different concentrations, LPA data was represented by a percentage decrease of LPA: 100-[((LPA peak area ratio of compound)/(LPA peak area ratio of control))×100]. IC50 was calculated using Graphpad Prism 6.0 software.

CYP3A4 = CYP3A4 (Homo sapiens (Human), UniProt P08684); assay: Time-dependent inhibition of CYP3A4 (TDI assay, human liver microsomes); assay type: in vitro ADME; conditions: for CYP3A4 TDI % @ 10 μM: human liver microsomes, Midazolam substrate, 30 min with NADPH vs 0 min
Description: Effect Example 3. Time-Dependent Inhibition of CYP3A4
1. Preheating potassium phosphate buffer (K-buffer), pH 7.4: 100 mM potassium phosphate buffer (K-buffer) was prepared by mixing 9.5 mL of solution A with 40.5 mL of solution B, diluting to 500 mL with ultrapure water, and then adjusting to pH 7.4 with KOH or H3PO4, wherein the solution A (1M potassium dihydrogenphosphate) was prepared by dissolving 136.5 g of potassium dihydrogenphosphate in […] of ultrapure water.
2. Preparation of human liver microsome suspension (1.3 mg/mL, 1.3×, stock: 20 mg/mL): 100 μL of human liver microsome suspension (20 mg/mL) was added into […] of K-buffer.
3. Preparation of NADPH solution (4.167 mg/mL, 5 mM): 8.3 mg of NADPH was added into 2 mL of buffer.
4. Preparation of substrate solution (1.5× final): 1.5 μL of 10 mM Midazolam was added to 998.5 μL of K-buffer to yield the substrate mixture.
5. Preparation of 100× test compound, reference and blank control solutions: 3 μL of 10 mM stock solution of test compound was added to 27 μL of ACN; 3 μL of positive control stock solution was added to 27 μL of ACN; and 3 μL of DMSO was added to 27 μL of ACN to serve as blank control.
6. Primary preheating system: An NADPH-free system for 0 min incubation: 78 μL of 1.3× human liver microsome solution (step 2) was mixed with 1 μL of the 100× stock solutions of positive control, test compound, or blank control (step 5); A system containing NADPH for 30 min incubation: 78 μL of 1.3× human liver microsome solution (step 2) was mixed with 1 μL of the 100× stock solutions of positive control, test compound, or blank control (step 5).
7. Secondary preheating system: 150 μL of the substrate solution prepared in step 4 was added into a deep well plate together with the NADPH solution from step 3
8. The samples were preheated for 10 min in a 37° C. water bath.
9. Reaction procedure: (1) reaction for 0 min: 21 μL of K-buffer was added to the primary preheating system and mixed well without incubation; 20 μL of the mixture was immediately transferred into the plate of the secondary preheating system; after mixing, the secondary system was incubated in a 37° C. water bath for 15 min, and 60 μL of the reaction mixture was added into 120 μL of acetonitrile containing internal standard to terminate the reaction; and (2) reaction for 30 min: 21 μL of NADPH was added into the primary preheating system for a 30-min incubation after mixing; 20 μL of the mixture was added into the secondary preheating system prior to mixing; the mixture was incubated in a 37° C. water bath for 15 min, and 60 μL of the reaction mixture was added into 120 μL of acetonitrile containing internal standard to terminate the reaction.
10. After termination, the samples were shaken on a shaker at 600 rpm for 10 min and centrifuged at 5594 g for 15 min prior to LC-MS/MS analysis.

Sequence of CYP3A4 (P08684 whole entry): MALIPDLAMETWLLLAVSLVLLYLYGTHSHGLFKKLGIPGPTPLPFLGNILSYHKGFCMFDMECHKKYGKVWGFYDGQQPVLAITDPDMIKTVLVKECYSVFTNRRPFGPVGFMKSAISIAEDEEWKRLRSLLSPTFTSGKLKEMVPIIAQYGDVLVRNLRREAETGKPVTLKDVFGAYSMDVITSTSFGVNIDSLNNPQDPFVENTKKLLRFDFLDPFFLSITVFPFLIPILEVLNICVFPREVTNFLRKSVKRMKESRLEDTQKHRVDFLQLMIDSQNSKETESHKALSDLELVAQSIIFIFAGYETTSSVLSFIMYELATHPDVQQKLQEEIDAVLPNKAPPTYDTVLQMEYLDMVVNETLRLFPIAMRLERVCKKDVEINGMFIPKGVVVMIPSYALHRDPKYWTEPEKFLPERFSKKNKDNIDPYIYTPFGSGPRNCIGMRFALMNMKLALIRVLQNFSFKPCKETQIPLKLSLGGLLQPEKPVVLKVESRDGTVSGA

`CCN(c1nc(-c2ccc(F)cc2)c(C#N)s1)c1c2cc(N3CCN(CC(=O)N4CC(O)C4)[C@H](C(F)(F)F)C3)cc(F)c2nn1CC` [Compound S-0135A, (S)-2-(ethyl(2-ethyl-7-fluoro-5-(4-(2-(3-hydroxyazetidin-1-yl)-2-oxoethyl)-3-(trifluoromethyl)piperazin-1-yl)-2H-indazol-3-yl)amino)-4-(4-fluorophenyl)thiazole-5-carbonitrile] gave an IC50 (Autotaxin (ATX)) of 132 nM and an IC50 (LPA18:2 in mouse plasma) of 442 nM.
For `CCN(c1nc(-c2ccc(F)cc2)c(C#N)s1)c1c2nc(N3CCN(CC(=O)N4CC(O)C4)CC3)ccc2nn1CC` [Compound S-0117, 2-(ethyl(2-ethyl-5-(4-(2-(3-hydroxyazetidin-1-yl)-2-oxoethyl)piperazin-1-yl)-2H-pyrazolo[4,3-b]pyridin-3-yl)amino)-4-(4-fluorophenyl)thiazole-5-carbonitrile], the IC50 (Autotaxin (ATX)) was 12 nM, the “CYP3A4 TDI % @ 10 μM” value (CYP3A4) was 15.2% and the “time-dependent inhibition on CYP3A4 (conclusion)” value (CYP3A4; conclusion drawn from Table 3, 10 μM) was “no time-dependent inhibition on CYP3A4”. The IC50 (LPA18:2 in mouse plasma) was 38 nM.
Work on `CCc1nc2ncc(N3CCN(CC(=O)N4CC(O)C4)CC3)cn2c1N(CC)c1nc(-c2ccc(F)cc2)c(C#N)s1` [Compound S-0058, 2-(ethyl(2-ethyl-6-(4-(2-(3-hydroxyazetidin-1-yl)-2-oxoethyl)piperazin-1-yl)imidazo[1,2-a]pyrimidin-3-yl)amino)-4-(4-fluorophenyl)thiazole-5-carbonitrile] yielded an IC50 (Autotaxin (ATX)) of 40 nM and an IC50 (LPA18:2 in mouse plasma) of 373 nM.
`CCn1nc2c(C)cc(N3CCN(CC(=O)N4CC(O)C4)CC3)nc2c1N(CC(F)F)c1nc(-c2ccc(F)cc2)c(C#N)s1` [Compound S-0141, 2-((2,2-difluoroethyl)(2-ethyl-5-(4-(2-(3-hydroxyazetidin-1-yl)-2-oxoethyl)piperazin-1-yl)-7-methyl-2H-pyrazolo[4,3-b]pyridin-3-yl)amino)-4-(4-fluorophenyl)thiazole-5-carbonitrile] was tested, and the IC50 (Autotaxin (ATX)) was 43 nM and the IC50 (LPA18:2 in mouse plasma) was 153 nM.
`CCc1nc2c(C)cc(N3CCN(CC(=O)N4CC(O)C4)CC3)cn2c1N(C)c1nc(-c2ccc(F)cc2)c(C#N)s1` [GLPG1690, reference compound] was tested, and the “CYP3A4 TDI % @ 10 μM” value (CYP3A4) was 21.57% and the IC50 (LPA18:2 in mouse plasma) was 1060 nM.
In the case of `CCN(c1nc(-c2ccc(F)cc2)c(C#N)s1)c1c2cc(N3CCN(CC(=O)N4CC(O)C4)[C@@H](C(F)(F)F)C3)cc(F)c2nn1CC` [Compound S-0135B, (R)-2-(ethyl (2-ethyl-7-fluoro-5-(4-(2-(3-hydroxyazetidin-1-yl)-2-oxoethyl)-3-(trifluoromethyl)piperazin-1-yl)-2H-indazol-3-yl)amino)-4-(4-fluorophenyl)thiazole-5-carbonitrile], the IC50 (LPA18:2 in mouse plasma) is reported as 167 nM.
For `CCn1nc2c(C)cc(N3CCN(CC(=O)N4CC(O)C4)CC3)nc2c1N(CCF)c1nc(-c2ccc(F)cc2)c(C#N)s1` [Compound S-0144, 2-((2-ethyl-5-(4-(2-(3-hydroxyazetidin-1-yl)-2-oxoethyl)piperazin-1-yl)-7-methyl-2H-pyrazolo[4,3-b]pyridin-3-yl)(2-fluoroethyl)amino)-4-(4-fluorophenyl)thiazole-5-carbonitrile], the IC50 (Autotaxin (ATX)) was 27 nM and the IC50 (LPA18:2 in mouse plasma) was 67 nM.
In the case of `CCN(c1nc(-c2ccc(F)cc2)cs1)c1c2cc(N3CCN(CC(=O)N4CC(O)C4)CC3)cc(F)c2nn1CC` [Compound S-0149, 2-(4-(2-ethyl-3-(ethyl(4-(4-fluorophenyl)thiazol-2-yl)amino)-7-fluoro-2H-indazol-5-yl)piperazin-1-yl)-1-(3-hydroxyazetidin-1-yl)ethanone], the IC50 (LPA18:2 in mouse plasma) is reported as 160 nM.
`CCN(c1nc(-c2ccc(F)cc2)c(C#N)s1)c1c2cc(N3CCN(CC(=O)N4CC(O)C4)CC3C(F)(F)F)cc(F)c2nn1CC` (single isomer, unassigned) [Compound S-0134A, 2-(ethyl(2-ethyl-7-fluoro-5-(4-(2-(3-hydroxyazetidin-1-yl)-2-oxoethyl)-2-(trifluoromethyl)piperazin-1-yl)-2H-indazol-3-yl)amino)-4-(4-fluorophenyl)thiazole-5-carbonitrile] gave an IC50 (Autotaxin (ATX)) of 20 nM and an IC50 (LPA18:2 in mouse plasma) of 116 nM.
Work on `CCn1nc2c(F)cc(N3CCN(CC(=O)N4CC(O)C4)CC3C(F)(F)F)cc2c1N(C)c1nc(-c2ccc(F)cc2)c(C#N)s1` (single isomer, unassigned) [Compound S-0131A, 2-((2-ethyl-7-fluoro-5-(4-(2-(3-hydroxyazetidin-1-yl)-2-oxoethyl)-2-(trifluoromethyl)piperazin-1-yl)-2H-indazol-3-yl)(methyl)amino)-4-(4-fluorophenyl)thiazole-5-carbonitrile] yielded an IC50 (Autotaxin (ATX)) of 47 nM and an IC50 (LPA18:2 in mouse plasma) of 236 nM.
`CCn1nc2c(F)cc(N3CCN(CC(=O)N4CC(O)C4)CC3C(F)(F)F)cc2c1N(C)c1nc(-c2ccc(F)cc2)c(C#N)s1` (single isomer, unassigned) [Compound S-0131B, 2-((2-ethyl-7-fluoro-5-(4-(2-(3-hydroxyazetidin-1-yl)-2-oxoethyl)-2-(trifluoromethyl)piperazin-1-yl)-2H-indazol-3-yl) (methyl)amino)-4-(4-fluorophenyl)thiazole-5-carbonitrile] was tested, and the IC50 (Autotaxin (ATX)) was 36 nM and the IC50 (LPA18:2 in mouse plasma) was 91 nM.
